From paper PMC4970648, “Studies on 16α-Hydroxylation of Steroid Molecules and Regioselective Binding Mode in Homology-Modeled Cytochrome P450-2C11” (International Journal of Medicinal Chemistry, 2010)

The molecules below were run against [3H]PROG 16α-hydroxylating activity by male rat liver microsomes (CYP2C11) (Rattus norvegicus, UniProt P08683) (assay: Inhibition of [3H]progesterone 16α-hydroxylation by adult male rat liver microsomes). Details: not given.
[3H]PROG 16α-hydroxylating activity by male rat liver microsomes (CYP2C11), sequence (P08683 whole entry): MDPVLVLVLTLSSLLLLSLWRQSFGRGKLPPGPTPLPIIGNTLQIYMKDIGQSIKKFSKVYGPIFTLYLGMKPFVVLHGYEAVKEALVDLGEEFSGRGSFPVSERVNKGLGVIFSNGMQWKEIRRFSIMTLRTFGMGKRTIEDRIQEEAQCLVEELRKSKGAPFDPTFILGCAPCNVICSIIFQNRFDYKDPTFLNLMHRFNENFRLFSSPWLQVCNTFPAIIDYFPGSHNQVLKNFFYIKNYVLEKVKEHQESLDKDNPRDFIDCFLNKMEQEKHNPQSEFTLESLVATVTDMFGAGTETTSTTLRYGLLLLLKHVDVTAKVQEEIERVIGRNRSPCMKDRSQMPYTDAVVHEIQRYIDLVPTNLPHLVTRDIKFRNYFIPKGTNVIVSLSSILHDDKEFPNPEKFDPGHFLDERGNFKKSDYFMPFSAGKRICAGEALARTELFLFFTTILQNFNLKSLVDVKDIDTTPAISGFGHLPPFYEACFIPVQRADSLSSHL
Protocol: Approximately 95-day-old male Wistar rats, castrated on the 70th day after birth, were used. The liver microsomes were prepared as previously described. The experiments were performed according to instrumental guidelines for the care and use of laboratory animals.
The metabolism by rat liver microsomes were examined, according to our previously described procedure. Briefly, the microsomal suspension (400–600 μg of protein/2.2 mL, total volume of the reaction mixture) was preincubated with [3H]PROG (20 nM) under the absence or presence of an unlabeled steroid (0.01–10 μM) at 36°C for 30 min. […] After the incubation, two identical samples were mixed and extracted with toluene. The toluene-extractable [3H]PROG metabolites (more than 90%) were isolated by various paper chromatographic systems and then identified by recrysallization method. Other miscellaneous procedures are described in our previous papers.
In the case of `CC(=O)[C@H]1[C@H](O)C[C@H]2[C@@H]3CC[C@H]4C[C@@H](O)CC[C@]4(C)[C@H]3CC[C@@]21C` [compound 36, 3β,16α-Dihydroxy-5α-pregnan-20-one], the “[3H]PROG16α-hydroxylation (IC40)” value is reported as 1150 nM.

Same assay, conditions: 40% inhibition not reached at 10 μM of unlabeled steroid; male rat liver microsomes
In the case of `CC(=O)[C@H]1CC[C@H]2[C@@H]3CCC4=CC(=O)CC[C@]4(CO)[C@H]3CC[C@]12C` [compound 11, 19-Hydroxyprogesterone], the “[3H]PROG16α-hydroxylation (IC40), given as bound in μM” value is reported as over 10 µM. With `C[C@]12CC[C@@H](O)C[C@@H]1CC[C@@H]1[C@@H]2CC[C@]2(C)[C@@H](OS(=O)(=O)O)CC[C@@H]12` [compound 64, 5α-Androstan-3α,17β-diol-17-sulfate] the “[3H]PROG16α-hydroxylation (IC40), given as bound in μM” value was over 10 µM. With `CC[C@H]1CC[C@H]2[C@@H]3CC=C4C[C@@H](O)CC[C@]4(C)[C@H]3CC[C@]12C` [compound 25, 5-Pregnen-3β-ol] the “[3H]PROG16α-hydroxylation (IC40), given as bound in μM” value was over 10 µM. In the case of 3β-Pregnan-3-one [compound 37], the “[3H]PROG16α-hydroxylation (IC40), given as bound in μM” value is reported as over 10 µM. For `CC(=O)O[C@@H]1C[C@]2(C)[C@@H](C(C)=O)CC[C@H]2[C@@H]2CCC3=CC(=O)CC[C@]3(C)[C@H]21` [compound 6, 11α-Acetoxyprogesterone], the “[3H]PROG16α-hydroxylation (IC40), given as bound in μM” value was over 10 µM. In the case of `C[C@H](O)[C@H]1CC[C@H]2[C@@H]3CCC4=CC(=O)CC[C@]4(C)[C@H]3CC[C@]12C` [compound 13, 20α-Hydroxyprogesterone], the “[3H]PROG16α-hydroxylation (IC40), given as bound in μM” value is reported as over 10 µM. For `CC(=O)[C@H]1CC[C@H]2[C@@H]3CCC4=CC(=O)CC[C@]4(C)[C@H]3CC[C@]12CO` [compound 10, 18-Hydroxyprogesterone], the “[3H]PROG16α-hydroxylation (IC40), given as bound in μM” value was over 10 µM. In the case of `CC(=O)[C@H]1CC[C@H]2[C@@H]3CC[C@H]4C[C@H](OS(=O)(=O)O)CC[C@]4(C)[C@H]3CC[C@]12C` [compound 31, 3α-Sulfate-5 α -pregnan-20-one], the “[3H]PROG16α-hydroxylation (IC40), given as bound in μM” value is reported as over 10 µM. In the case of `CC(=O)[C@H]1[C@H](C)C[C@H]2[C@@H]3CCC4=CC(=O)CC[C@]4(C)[C@H]3CC[C@@]21C` [compound 9, 16α-Methylprogesterone], the “[3H]PROG16α-hydroxylation (IC40), given as bound in μM” value is reported as over 10 μM ^d. `CC(=O)[C@H]1CC[C@H]2[C@@H]3C[C@@H](O)C4=CC(=O)CC[C@]4(C)[C@H]3CC[C@]12C` [compound 3, 6β-Hydroxyprogesterone] was tested, and the “[3H]PROG16α-hydroxylation (IC40), given as bound in μM” value was over 10 μM^c. For `C[C@]12C[C@H](O)[C@H]3[C@@H](CCC4=CC(=O)CC[C@@]43C)[C@@H]1CC[C@@H]2C(=O)CO` [compound 16, Corticosterone], the “[3H]PROG16α-hydroxylation (IC40), given as bound in μM” value was over 10 µM. In the case of `CC(=O)[C@H]1CC[C@H]2[C@@H]3CCC4=CC(=O)CC[C@@H]4[C@H]3CC[C@]12C` [compound 12, 19-Norprogesterone], the “[3H]PROG16α-hydroxylation (IC40), given as bound in μM” value is reported as over 10 µM. With `C[C@]12CCCC[C@@H]1CC[C@@H]1[C@@H]2CC[C@]2(C)[C@@H](O)CC[C@@H]12` [compound 52, 5α-Androstan-17β-ol] the “[3H]PROG16α-hydroxylation (IC40), given as bound in μM” value was over 10 µM. `C[C@H](O)[C@H]1CC[C@H]2[C@@H]3CC=C4C[C@@H](O)CC[C@]4(C)[C@H]3CC[C@]12C` [compound 21, 20α-Hydroxypregnenolone] was tested, and the “[3H]PROG16α-hydroxylation (IC40), given as bound in μM” value was over 10 µM. With `C[C@]12CC[C@H](OS(=O)(=O)O)CC1=CC[C@@H]1[C@@H]2CC[C@]2(C)C(=O)CC[C@@H]12` [compound 44, Dehydroepiandrosterone-3-sulfate] the “[3H]PROG16α-hydroxylation (IC40), given as bound in μM” value was over 10 µM. With `CC(=O)OCC(=O)C1CCC2C3CCC4=CC(=O)CCC4(C)C3CCC12C` (stereo not shown) [compound 15, 21-Acetoxyprogesterone] the “[3H]PROG16α-hydroxylation (IC40), given as bound in μM” value was over 10 µM. With `C[C@]12CC[C@H]3[C@@H](CCC4=CC(=O)CC[C@@]43C)[C@@H]1CC[C@@H]2C(=O)CO` [compound 14, 21-Hydroxyprogesterone] the “[3H]PROG16α-hydroxylation (IC40), given as bound in μM” value was over 10 µM. For `CC(C)CCC[C@@H](C)[C@H]1CC[C@H]2[C@@H]3CC=C4C[C@@H](O)CC[C@]4(C)[C@H]3CC[C@]12C` [compound 26, Cholesterol], the “[3H]PROG16α-hydroxylation (IC40), given as bound in μM” value was over 10 µM. For `CC(=O)O[C@H]1CC[C@H]2[C@@H]3CCC4=CC(=O)CC[C@]4(C)[C@H]3CC[C@]12C` [compound 42, 17β-Acetoxytestosterone], the “[3H]PROG16α-hydroxylation (IC40), given as bound in μM” value was over 10 µM.

Same assay, conditions: IC40 of progesterone 1 relative to IC40 of 33
`CC(=O)[C@H]1CC[C@H]2[C@@H]3CC[C@@H]4C[C@H](O)CC[C@]4(C)[C@H]3CC[C@]12C` [compound 33, 3α-Hydroxy-5 β -pregnan-20-one] was tested, and the “observed inhibitory potency index against [3H]PROG 16α-hydroxylation” value was 31.46.

Same assay, conditions: molar concentration of unlabeled steroid causing 40% inhibition; [3H]PROG 20 nM; unlabeled steroid 0.01–10 μM; male rat liver microsomes
With `C[C@]12CC[C@H]3[C@@H](CC=C4C[C@@H](O)CC[C@@]43C)[C@@H]1CC[C@@H]2O` [compound 45, 5-Androstenediol] the “[3H]PROG16α-hydroxylation (IC40)” value was 640 nM. `CC(=O)[C@H]1CC[C@H]2[C@@H]3CCC4=C[C@@H](O)CC[C@]4(C)[C@H]3CC[C@]12C` [compound 2, 3β-Hydroxyprogesterone] was tested, and the “[3H]PROG16α-hydroxylation (IC40)” value was 255 nM. `C[C@@]12CCC[C@H]1[C@@H]1CC[C@H]3C[C@H](O)CC[C@]3(C)[C@H]1CC2` [compound 48, 5α-Androstan-3α-ol] was tested, and the “[3H]PROG16α-hydroxylation (IC40)” value was 1030 nM. In the case of `CC(=O)[C@H]1CC[C@H]2[C@@H]3CC[C@H]4C[C@@H](O)CC[C@]4(C)[C@H]3CC[C@]12C` [compound 32, 3β-Hydroxy-5 α -pregnan-20-one], the “[3H]PROG16α-hydroxylation (IC40)” value is reported as 225 nM. For `CC(=O)[C@H]1CC[C@H]2[C@@H]3CC[C@H]4C[C@H](O)CC[C@]4(C)[C@H]3[C@@H](O)C[C@]12C` [compound 35, 3α,11β-Dihydroxy-5α-pregnan-20-one], the “[3H]PROG16α-hydroxylation (IC40)” value was 150 nM. For `C[C@]12CC[C@@H](O)C[C@@H]1CC[C@@H]1[C@@H]2CC[C@]2(C)[C@@H](O)CC[C@@H]12` [compound 62, 5α-Androstan-3α,17β-diol], the “[3H]PROG16α-hydroxylation (IC40)” value was 125 nM. In the case of `CC(=O)OCC(=O)[C@H]1CC[C@H]2[C@@H]3CC=C4C[C@@H](O)CC[C@]4(C)[C@H]3CC[C@]12C` [compound 23, 21-Acetoxypregnenolone], the “[3H]PROG16α-hydroxylation (IC40)” value is reported as 600 nM. `COC(=O)[C@@H]1C[C@@H](O)C[C@H]2CC[C@H]3[C@@H]4CCC[C@@]4(C)CC[C@@H]3[C@]21C` [compound 68, 5β-Androstan-3α-ol-1β-carboxylic acid methyl ester] was tested, and the “[3H]PROG16α-hydroxylation (IC40)” value was 43 nM. With `CC(=O)O[C@@H]1CC[C@@]2(C)[C@@H](CC[C@@H]3[C@@H]2CC[C@]2(C)[C@@H](C(C)=O)CC[C@@H]32)C1` [compound 30, 3α-Acetoxy-5 α -pregnan-20-one] the “[3H]PROG16α-hydroxylation (IC40)” value was 410 nM. With `C[C@]12CC[C@H]3[C@@H](CCC4=CC(=O)CC[C@@]43C)[C@@H]1CC[C@@H]2O` [compound 41, Testosterone] the “[3H]PROG16α-hydroxylation (IC40)” value was 1450 nM. In the case of `C[C@]12CC[C@H]3[C@@H](CC=C4C[C@@H](O)CC[C@@]43C)[C@@H]1CC[C@@H]2C(=O)CO` [compound 22, 21-Hydroxypregnenolone], the “[3H]PROG16α-hydroxylation (IC40)” value is reported as 462 nM. In the case of `CC(=O)O[C@@H]1C[C@H]2[C@@H]3CC[C@H](C(C)=O)[C@@]3(C)CC[C@@H]2[C@@]2(C)CCC(=O)C=C12` [compound 4, 6β-Acetoxyprogesterone], the “[3H]PROG16α-hydroxylation (IC40)” value is reported as 740 nM. With `C[C@]12CC[C@@H](O)C[C@H]1CC[C@@H]1[C@@H]2CC[C@]2(C)[C@@H](C(=O)O)CC[C@@H]12` [compound 67, 5β-Androstan-3α-ol-17β-carboxylic acid] the “[3H]PROG16α-hydroxylation (IC40)” value was 360 nM. In the case of `C[C@]12CCC(=O)C[C@@H]1CC[C@@H]1[C@@H]2CC[C@]2(C)C(=O)CC[C@@H]12` [compound 54, 5α-Androstan-3,17-dione], the “[3H]PROG16α-hydroxylation (IC40)” value is reported as 650 nM. With `CC(=O)[C@H]1CC[C@H]2[C@@H]3CC[C@@H]4C[C@@H](O)CC[C@]4(C)[C@H]3CC[C@]12C` [compound 34, 3β-Hydroxy-5 β -pregnan-20-one] the “[3H]PROG16α-hydroxylation (IC40)” value was 170 nM. In the case of `CC(=O)[C@H]1CC[C@H]2[C@@H]3CC[C@@H]4C[C@H](O)CC[C@]4(C)[C@H]3CC[C@]12C` [compound 33, 3α-Hydroxy-5 β -pregnan-20-one], the “[3H]PROG16α-hydroxylation (IC40)” value is reported as 24 nM. In the case of `CC(=O)[C@H]1CC[C@H]2[C@@H]3CCC4=CC(=O)CC[C@]4(C)[C@H]3CC[C@]12C` [compound 1, Progesterone], the “[3H]PROG16α-hydroxylation (IC40)” value is reported as 755 nM. In the case of `CC(=O)C1CCC2C3CC=C4CC(OS(=O)(=O)O)CCC4(C)C3CCC12C` (stereo not shown) [compound 19, Pregnenolone-3-sulfate], the “[3H]PROG16α-hydroxylation (IC40)” value is reported as 195 nM. For `C[C@]12CCC(=O)C=C1CC[C@@H]1[C@@H]2CC[C@]2(C)C(=O)CC[C@@H]12` [compound 38, 4-Androsten-3,17-dione], the “[3H]PROG16α-hydroxylation (IC40)” value was 1000 nM. With `CC(=O)[C@H]1CC[C@H]2[C@@H]3CC[C@H]4C[C@H](O)CC[C@]4(C)[C@H]3CC[C@]12C` [compound 29, 3α-Hydroxy-5 α -pregnan-20-one] the “[3H]PROG16α-hydroxylation (IC40)” value was 62 nM. For `CC(=O)O[C@H]1CC[C@@]2(C)C(=CC[C@H]3[C@@H]4CC[C@H](C(C)=O)[C@@]4(C)CC[C@@H]32)C1` [compound 18, Pregnenolone-3-acetate], the “[3H]PROG16α-hydroxylation (IC40)” value was 800 nM. `CC(=O)[C@H]1CC[C@H]2[C@@H]3CC[C@@H]4CC(=O)CC[C@]4(C)[C@H]3CC[C@]12C` [compound 28, 5β-Pregnan-3,20-dione] was tested, and the “[3H]PROG16α-hydroxylation (IC40)” value was 395 nM. In the case of `C[C@@]12CCC[C@H]1[C@@H]1CC[C@H]3C[C@@H](O)CC[C@]3(C)[C@H]1CC2` [compound 49, 5α-Androstan-3β-ol], the “[3H]PROG16α-hydroxylation (IC40)” value is reported as 650 nM. In the case of `CC(=O)[C@H]1CC[C@H]2[C@@H]3CC=C4C[C@@H](O)CC[C@]4(C)[C@H]3CC[C@]12C` [compound 17, Pregnenolone], the “[3H]PROG16α-hydroxylation (IC40)” value is reported as 142 nM. For `C[C@]12CC[C@H](O)C[C@H]1CC[C@@H]1[C@@H]2CC[C@]2(C)[C@@H](O)CC[C@@H]12` [compound 69, 5β-Androstan-3β,17β-diol], the “[3H]PROG16α-hydroxylation (IC40)” value was 320 nM.
